In brackets after ≈: the same amount, converted by molar mass. Each block holds one compound with its values, some of them ahead of it.
Assays:
Caenorhabditis elegans = test: In vitro inhibition against Caenorhabditis elegans motility for anthelmintic activity was measured; type: functional, organism-based
Ovis aries [1] = test: Evaluated for the anthelmintic activity against Cooperia species in sheep at dose of 0.5 mg/kg; value ranges from 91-100%; type: functional
Ovis aries [2] = test: Evaluated for the anthelmintic activity against Oesophagostomum columbianum in sheep at dose of 0.5 mg/kg; type: functional
Ovis aries [3] = test: Evaluated for the anthelmintic activity against Ostertagia circumcincta in sheep at dose of 2 mg/kg; value ranges from 91-100%; type: functional
Ovis aries [4] = test: Evaluated for the anthelmintic activity against Trichostrongylus colubriformis in sheep at dose of 0.5 mg/kg; value ranges from 91-100%; type: functional
Ovis aries [5] = test: Evaluated for the anthelmintic activity against Cooperia species in sheep at dose of 2 mg/kg; value ranges from 91-100%; type: functional
Ovis aries [6] = test: Evaluated for the anthelmintic activity against Haemonchus contortus in sheep at dose of 2 mg/kg; value ranges from 91-100%; type: functional
Ovis aries [7] = test: Evaluated for the anthelmintic activity against Haemonchus contortus in sheep at dose of 0.5 mg/kg; value ranges from 91-100%; type: functional
Ovis aries [8] = test: Evaluated for the anthelmintic activity against Trichostrongylus colubriformis in sheep at dose of 2 mg/kg; value ranges from 91-100%; type: functional
Ovis aries [9] = test: Evaluated for the anthelmintic activity against Trichostrongylus axei in sheep at dose of 0.5 mg/kg; value ranges from 91-100%; type: functional
Ovis aries [10] = test: Evaluated for the anthelmintic activity against Ostertagia circumcincta in sheep at dose of 0.5 mg/kg; value ranges from 91-100%; type: functional
Ovis aries [11] = test: Evaluated for the anthelmintic activity against Oesophagostomum columbianum in sheep at dose of 2 mg/kg; value ranges from 51-75%; type: functional
Ovis aries [12] = test: Evaluated for the anthelmintic activity against Trichostrongylus axei in sheep at dose of 2 mg/kg; value ranges from 91-100%; type: functional

Compound: C=CCO[C@]1(C)CCN2CC34CC5(C(=O)Nc6c5ccc5c6OC=CC(C)(C)O5)C(C)(C)C3CC21C(=O)N4C (stereo partly specified)
- Reduction (Ovis aries [1]): 91%
- Reduction (Ovis aries [2]): <50%
- Reduction (Ovis aries [3]): 91%
- Reduction (Ovis aries [4]): 91%
- Reduction (Ovis aries [5]): 91%
- Reduction (Ovis aries [6]): 91%
- Reduction (Ovis aries [7]): 91%
- IC50 (Caenorhabditis elegans): 15 µg/mL (≈ 28.1 µM)
- Reduction (Ovis aries [8]): 91%
- Reduction (Ovis aries [9]): 91%
- Reduction (Ovis aries [10]): 91%
- Reduction (Ovis aries [11]): 51%
- Reduction (Ovis aries [12]): 91%

Compound: CNC(=O)N(C)C(=O)O[C@]1(C)CCN2CC34CC5(C(=O)Nc6c5ccc5c6OC=CC(C)(C)O5)C(C)(C)C3CC21C(=O)N4C (stereo partly specified)
- IC50 (Caenorhabditis elegans): 60 µg/mL (≈ 98.7 µM)

Compound: CCO[C@]1(C)CCN2CC34CC5(C(=O)Nc6c5ccc5c6OC=CC(C)(C)O5)C(C)(C)C3CC21C(=O)N4C (stereo partly specified)
- IC50 (Caenorhabditis elegans): 2 µg/mL (≈ 3.83 µM)

Compound: CN1C(=O)C23CC4C1(CN2CC[C@@]3(C)OCc1ccccc1)CC1(C(=O)Nc2c1ccc1c2OC=CC(C)(C)O1)C4(C)C (stereo partly specified)
- IC50 (Caenorhabditis elegans): 65 µg/mL (≈ 111 µM)

Compound: CO[C@]1(C)CCN2CC34CC5(C(=O)Nc6c5ccc5c6OC=CC(C)(C)O5)C(C)(C)C3CC21C(=O)N4C (stereo partly specified)
- IC50 (Caenorhabditis elegans): 70 µg/mL (≈ 138 µM)

Results, then the compound that gave them:

- IC50 (Caenorhabditis elegans): 5 µg/mL (≈ 9.1 µM)
Compound: CCCCO[C@]1(C)CCN2CC34CC5(C(=O)Nc6c5ccc5c6OC=CC(C)(C)O5)C(C)(C)C3CC21C(=O)N4C (stereo partly specified)

- IC50 (Caenorhabditis elegans): 20 µg/mL (≈ 34.4 µM)
Compound: COCCOCO[C@]1(C)CCN2CC34CC5(C(=O)Nc6c5ccc5c6OC=CC(C)(C)O5)C(C)(C)C3CC21C(=O)N4C (stereo partly specified)

- IC50 (Caenorhabditis elegans): 7.5 µg/mL (≈ 14.1 µM)
Compound: C#CCO[C@]1(C)CCN2CC34CC5(C(=O)Nc6c5ccc5c6OC=CC(C)(C)O5)C(C)(C)C3CC21C(=O)N4C (stereo partly specified)

- IC50 (Caenorhabditis elegans): 3 µg/mL (≈ 5.3 µM)
Compound: CN1C(=O)C23CC4C1(CN2CC[C@@]3(C)O[Si](C)(C)C)CC1(C(=O)Nc2c1ccc1c2OC=CC(C)(C)O1)C4(C)C (stereo partly specified)

Reference: ChEMBL document CHEMBL1151056, “The preparation and utilization of paraherquamide-2-O-methyl imidate in the synthesis of 14-O-substituted paraherquamide derivatives” (Bioorg Med Chem Lett, 1992)
